Read-outs that look alike come from different tables or passages of the source.
Key:
Format in all cases: cell-based, human
[1] = tested on: AR RNA in MCF-7 (HTB 22) cells; assay: Northern blot of AR RNA in MCF-7 cells
From the text: c-AMP is another regulatory molecule which exerts diverse effects on cells, primarily through cAMP-dependent protein kinase A. Intracellular levels of cAMP are regulated by a combination of receptor-mediated activation and adenylate cyclase inhibition. Some studies indicate that TPA and cAMP induced gene expression may converge as a common pathway. To study the regulation of AR gene expression, we chose to look at the effect of various activators or inhibitors of both these regulatory pathways on the production of AR specific RNA in MCF-7 cells.
Forskolin is a drug which activates adenylate cyclase, resulting in increased intracellular cAMP.
Ten or twenty μg of total RNA was electrophoresed on 1.2% agarose/formaldehyde gels for Northern analysis. The agarose/formaldehyde gels were prepared in 40 mM N-morpholinopropanesulfonic acid (MOPS), pH 7.0/1 mM EDTA/10 mM sodium acetate/2/2 M deionized formaldehyde (pH5.6) in an IBI VCV gel apparatus with frosted plates. RNA was denatured in the same buffer with 50% formamide at 65° C., and run in 1×MOPS, at 20-30 mA for 3-5 hr. […] Bands were scored as (+) if clearly visible after overnight exposure, (+/-) if visible after 3 day exposure, and (++) if detectable after 6 hr. […]

[2] = tested on: AR RNA in BT-474 (HTB 20) cells; assay: Northern blot of AR RNA, tumor cell line panel; set-up: key: +: clearly visible after overnight exposure; +/-: visible after 3 day exposure; ++: detectable after 6 hr; details: 24 hour induction with TPA
Procedure: (§1) Ten or twenty μg of total RNA was electrophoresed on 1.2% agarose/formaldehyde gels for Northern analysis. The agarose/formaldehyde gels were prepared in 40 mM N-morpholinopropanesulfonic acid (MOPS), pH 7.0/1 mM EDTA/10 mM sodium acetate/2/2 M deionized formaldehyde (pH5.6) in an IBI VCV gel apparatus with frosted plates. RNA was denatured in the same buffer with 50% formamide at 65° C., and run in 1×MOPS, at 20-30 mA for 3-5 hr. The gel was rinsed in 10×SSC for 30 min and transferred to Hybond-N membranes (Amersham), UV-crosslinked (1200 μJoules), prehybridized and hybridized in 5×SSPE (1×SSPE is 0.18 M NaCl/10 mM sodium phosphate, pH 7.7, 0.1 mM EDTA), 5×Denhardt's, 0.5% SDS, and 20 μg/ml denatured salmon sperm DNA as carrier. Hybridizations were carried out at 42° C. for 16 hr with 2×10^6 cpm/ml of the ^ 32 P-ARBP1. Blots were washed several times in 2×SSC with 0.1% SDS at room temperature followed by 1×SSC/0.1% SDS, 65° C., and exposed on Kodak X-OMAT with two Dupont Lightning Plus intensifying screens at -70° C. Bands were scored as (+) if clearly visible after overnight exposure, (+/-) if visible after 3 day exposure, and (++) if detectable after 6 hr.
(§2) A panel of tumor cell lines was tested for AR RNA levels both before and after 24 hour induction with TPA. With but a few exceptions, the only sources of detectable AR RNA were in human breast cancer lines treated with TPA.

AR RNA in BT-476 cells = assay: Northern blot of AR RNA, tumor cell line panel; set-up: key: +: clearly visible after overnight exposure; +/-: visible after 3 day exposure; ++: detectable after 6 hr; details: BT-476, 24 hour induction with TPA
Procedure: as §1, §2

[3] = tested on: AR RNA in HBL-100 (HTB 124) cells; assay: Northern blot of AR RNA, tumor cell line panel; set-up: key: +: clearly visible after overnight exposure; +/-: visible after 3 day exposure; ++: detectable after 6 hr; details: 24 hour induction with TPA
Procedure: as §1, §2

[4] = tested on: AR RNA in HEPM (CRL 1486) cells; assay: Northern blot of AR RNA, tumor cell line panel; set-up: key: +: clearly visible after overnight exposure; +/-: visible after 3 day exposure; ++: detectable after 6 hr; details: 24 hour induction with TPA
Procedure: as §1, §2

[5] = tested on: AR RNA in HUF foreskin fibroblast cells; assay: Northern blot of AR RNA, tumor cell line panel; set-up: key: +: clearly visible after overnight exposure; +/-: visible after 3 day exposure; ++: detectable after 6 hr; details: 24 hour induction with TPA
Procedure: as §1, §2

[6] = tested on: AR RNA in JEG-3 (HTB 36) cells; assay: Northern blot of AR RNA, tumor cell line panel; set-up: key: +: clearly visible after overnight exposure; +/-: visible after 3 day exposure; ++: detectable after 6 hr; details: 24 hour induction with TPA
Procedure: as §1, §2

[7] = tested on: AR RNA in MDA-MB-157 (HTB 24) cells; assay: Northern blot of AR RNA, tumor cell line panel; set-up: key: +: clearly visible after overnight exposure; +/-: visible after 3 day exposure; ++: detectable after 6 hr; details: 24 hour induction with TPA
Procedure: as §1, §2

[8] = tested on: AR RNA in MDA-MB-361 (HTB 27) cells; assay: Northern blot of AR RNA, tumor cell line panel; set-up: key: +: clearly visible after overnight exposure; +/-: visible after 3 day exposure; ++: detectable after 6 hr; details: 24 hour induction with TPA
Procedure: as §1, §2

[9] = tested on: AR RNA in SK-BR-3 (HTB 30) cells; assay: Northern blot of AR RNA, tumor cell line panel; set-up: key: +: clearly visible after overnight exposure; +/-: visible after 3 day exposure; ++: detectable after 6 hr; details: 24 hour induction with TPA
Procedure: as §1, §2

[10] = tested on: AR 5' flanking region driving CAT gene in MCF-7 cells; assay: CAT assay, AR 5' regulatory region/CAT constructs transiently introduced into MCF-7 cells
Procedure: MCF-7 cells were grown as described in Section 6.2.1 supra. For each assay, 1-2×10^6 cells were plated in a 100 mm dish in 10 ml media, and 24 hours later, 20 μg calcium phosphate precipitated supercoiled plasmid DNA was added to the cells (Southern and Berg, 1982). The cells were rinsed with fresh media 4 hours after transfection and subjected to a 25% glycerol shock for 90 seconds. Cells were again rinsed and overlayed with 20 ml fresh media containing 0 or 100ng/ml TPA. Cells were washed and harvested 40 hours after glycerol shock and lysed by sonication in 100 μl 1 0.25 M Tris-HCl (pH 7.8). CAT activity was assayed essentially as detailed by Gorman et al. (1982). Cell extract (3-50 μl) was added to […] ^14 C-chloramphenicol (NEN), in a 150 μl reaction volume of 0.5 M Tris (pH 7.8), 0.5 mM AcetylCoA. The reactions were incubated at 37° C. for 2 hours, extracted with 1 ml ethyl acetate and developed on silica gel TLC plates with CHCl3 :1-butanol (95:5). TLC plates were dried and autoradiographed. The acetylated and unacetylated ^14 C-chloramphenicol was quantitated by counting excised spots in Optifluor. Units of CAT enzymatic activity were calculated as μg chloramphenicol acetylated per hour per μg protein in the cell extract.
Primer extension was performed on MCF-7 RNA with 2 separate oligonucleotides from exon 1. […]

[11] = tested on: transcription of AR in MCF-7 cells; assay: Nuclear run-off, transcription of AR; details: in response to TPA
MCF-7 cells = assay: Morphology and cell number of MCF-7 cells; details: MCF-7 cells compared to untreated cells
From the text: TPA induces dramatic morphological changes in a dose-dependent manner. Following TPA treatment, MCF-7 cells lose their well defined morphology, become rounded, and spread out.

Row | Structure (SMILES) | AR mRNA ([1]; MCF-7 cells, 25 uM for 4 hours) | time after treatment at which increase in the 1.4 kb AR RNA species was seen ([1]; MCF-7 cells treated with TPA for 0-48 hours) [h] | AR RNA Level, TPA INDUCED [2] | AR RNA Level, TPA INDUCED (AR RNA in BT-476 cells) | AR RNA Level, TPA INDUCED [3] | AR RNA Level, TPA INDUCED [4] | AR RNA Level, TPA INDUCED [5] | AR RNA Level, TPA INDUCED [6] | AR RNA Level, TPA INDUCED [7] | AR RNA Level, TPA INDUCED [8] | AR RNA Level, TPA INDUCED [9] | fold induction at 0.1 µg/mL ([10]; MCF7, 40 h, pXARE1CAT (-648 to +40) in MCF-7 cells, addition of TPA, read-out: stimulation of CAT activity) | fold induction at 0.1 µg/mL ([10]; MCF7, deletion mutants E1a-E1h in MCF-7 cells, 40 hour treatment with 100 ng/ml TPA, read-out: enhanced expression of 5' CAT deletion constructs) | increased transcription of AR [11] | effect on cell number (MCF-7 cells)
1 | C=C[C@@]1(C)CC(=O)[C@]2(O)[C@@]3(C)[C@@H](O)CCC(C)(C)[C@@H]3[C@H](O)[C@H](OC(C)=O)[C@@]2(C)O1 [Forskolin] | marked stimulation | – | – | – | – | – | – | – | – | – | – | – | – | – | –
2 | CCCCCCCCCCCCCC(=O)O[C@@H]1[C@@H](C)[C@@]2(O)[C@@H](C=C(CO)C[C@]3(O)C(=O)C(C)=C[C@@H]23)[C@@H]2C(C)(C)[C@]12OC(C)=O [TPA, 12-0-tetradecanoyl-phorbol-13-acetate] | – | ≤ 1 | + | + | + | +/- | +/- | +/- | ++ | ++ | + | 6 to 7 | 3.5 to 7 | 3-5 fold | dose-dependent reduction in cell number
